Values after ≈ are worked out from the molar mass of the structure shown.
Settings: for aqueous solubility: pH 6.8

| MDR1-MDCK efflux ratio | intrinsic clearance, human liver microsomes [mL/min/kg] | intrinsic clearance, rat liver microsomes [mL/min/kg] | aqueous solubility [µg/mL] | fraction unbound, human plasma | SMILES |
| --- | --- | --- | --- | --- | --- |
| 8.05 | ≤ 4.74 | ≤ 10.7 | 50.6 (≈ 198 µM) | – | CC(C)(C)CC(=O)N1CCC(OCCCN)CC1 |
| 11.2 | 143 | 656 | 39.3 (≈ 119 µM) | – | CCc1ccc2nc(C)cc(C(=O)N3CC(c4cccnc4)C3)c2c1 |
| 22.5 | ≤ 4.74 | 23.4 | 54.1 | – | COc1cc2c(cc1OC)-c1cc3ccc(OC)c(OC)c3c[n+]1CC2 |
| 0.581 | 27.8 | 1280 | 39.7 (≈ 121 µM) | – | COc1c(C)cccc1CN1CCC(O)(c2ccc(F)cc2)CC1 |
| 0.79 | ≤ 4.74 | 39 | 26 (≈ 106 µM) | – | Cc1nc(CC(=O)NCc2ccccc2)cs1 |
| – | 36.2 | 525 | 28.9 (≈ 72.4 µM) | – | CC(Oc1ccc(Cl)cc1)C(=O)N1CCC(n2c(=O)[nH]c3ccccc32)CC1 (stereo not given) |
| 0.746 | 34.6 | 63.2 | 30 (≈ 98.5 µM) | – | Cc1nc(Cl)cc(Nc2ccc3c(c2)N(C)C(=O)CO3)n1 |
| 1.97 | ≤ 4.74 | 83.2 | – | – | COc1cc(C)cc(OC)c1-c1ccc(-c2nn[nH]n2)cc1 |
| 0.685 | ≤ 4.74 | ≤ 10.7 | – | – | Cc1ccc(CNc2ncnn2C)nc1 |
| – | 111 | 1250 | 35.2 (≈ 120 µM) | – | CN(Cc1c(F)cccc1Cl)C(=O)C1(C#N)CCCC1 |
| 1.08 | 9.73 | 571 | 39.7 (≈ 140 µM) | – | Cc1cc(C)n(-c2ccc(CNC(=O)C3CCC3)cn2)n1 |
| 0.826 | ≤ 4.74 | 73.1 | – | – | Cc1nccc(NC(=O)CCc2ccncc2)c1Cl |
| – | ≤ 4.74 | ≤ 10.7 | – | – | O=C1NC2(CCC2)C(=O)N1Cc1ccon1 |
| – | ≤ 4.74 | 47.9 | – | – | O=c1n(Cc2ccccn2)nc2n1-c1cc(Cl)ccc1C1=NCCN12 |
| – | – | – | 57.4 (≈ 263 µM) | – | Cn1ccnc1COc1ccc(CO)cc1 |
| 1.76 | ≤ 4.74 | 12.4 | – | – | O=C(O)c1ccccc1COc1cccc2cccnc12 |
| 1.11 | 114 | 929 | 49 (≈ 133 µM) | – | Cc1ccccc1C(=O)N1CCC[C@@H]1Cn1nnn(-c2cccs2)c1=O |
| 5.12 | 10 | 190 | 19.2 (≈ 54.3 µM) | – | Cn1nc(-c2cn(Cc3ccc(CO)cc3)nn2)c2c(Cl)cccc21 |
| 0.562 | 33.9 | 887 | – | – | CN1CCN(S(=O)(=O)Cc2ccc(Cl)c(Cl)c2)CC1 |
| – | 16.7 | 62.9 | – | – | Nc1nn(C(=O)Cc2ccc(F)cc2)c2cccc(F)c12 |

| MDR1-MDCK efflux ratio | intrinsic clearance, human liver microsomes [mL/min/kg] | intrinsic clearance, rat liver microsomes [mL/min/kg] | aqueous solubility [µg/mL] | fraction unbound, human plasma | SMILES |
| --- | --- | --- | --- | --- | --- |
| – | 82.3 | 1900 | 58.1 (≈ 199 µM) | – | CN(NC(=O)c1ccn(-c2ccccc2)n1)c1ccccc1 |
| – | 187 | 1320 | 31.4 (≈ 116 µM) | – | Cc1ccc(NC(=O)[C@H]2COc3ccccc3O2)nc1 |
| 36.4 | 9.21 | 123 | 13.7 (≈ 41 µM) | – | OCCn1cc(-c2ccc3c(c2)CC/C3=N\O)c(-c2ccncc2)n1 |
| 1.14 | 17.7 | – | – | 0.959 | NC[C@H]1CC[C@@H](C(=O)Nc2ccc3[nH]ncc3c2)O1 |
| 0.867 | 26.4 | 299 | – | – | CCC(=O)NCC[C@@H]1CCc2ccc3c(c21)CCO3 |
| 0.916 | ≤ 4.74 | ≤ 10.7 | 37.7 (≈ 142 µM) | – | COc1cccc(-c2nc(C(=O)O)cs2)c1OC |
| 7.22 | 448 | 4750 | – | – | CC(C)CN(Cc1cnn(C)c1)C(=O)c1cccc(-c2cnccn2)c1 |
| – | – | – | 1.1 (≈ 3.97 µM) | – | O=C(Nc1nc2ccccc2[nH]1)C1CC1c1ccccc1 (stereo not given) |
| 0.684 | 133 | 425 | 3.6 (≈ 14.1 µM) | – | COCc1nc(-c2cc(F)ccc2F)c(C)s1 |
| 1.24 | 62.6 | 4560 | 21.4 (≈ 63.4 µM) | – | Cc1cccc(-c2nc(CN(Cc3cnn(C)c3)C(C)C)c(C)o2)c1 |
| 0.651 | 122 | 1470 | 55.8 (≈ 205 µM) | – | O=C1CCC(=O)N1CCN1CCCCc2ccccc21 |
| 15.2 | 14.3 | 183 | 56.4 (≈ 166 µM) | – | CCCc1cc(N2CCc3c(nc(C(C)C)n3C)C2)n2ncnc2n1 |
| 0.634 | 63.5 | 1060 | – | – | COc1ncnc(C)c1-c1cccc(OC(C)C)c1 |
| – | – | – | 42.5 (≈ 145 µM) | – | N#C/C(=C\c1ccc(O)c(O)c1)C(=O)NCc1ccccc1 |
| 3.56 | ≤ 4.74 | ≤ 10.7 | 23.5 (≈ 99.4 µM) | – | CC(=O)Nc1cnn(CC2CCN(C)CC2)c1 |
| 1.76 | 45.7 | 621 | – | – | Cc1ccc(C#N)c(NCc2ccccc2-n2ccnc2)n1 |
| 2.14 | 311 | 1490 | 5.15 (≈ 12.1 µM) | – | CCOC(=O)c1c(C)[nH]c(CN(Cc2ccccc2)C(=O)c2ccccc2Cl)c1C |
| 18.2 | 138 | 3220 | – | – | CSc1nnc(CCCNc2cc(C)ccn2)n1C1CCCC1 |
| 14.6 | ≤ 4.74 | 14.2 | 67.3 (≈ 157 µM) | – | Cc1nn(-c2ccc(F)cc2)c(Cl)c1C(=O)N1CCC(S(=O)(=O)C(C)C)CC1 |
| – | – | – | 32.2 (≈ 125 µM) | – | CS(=O)(=O)NCCc1ccc2c(c1)OCCO2 |

| MDR1-MDCK efflux ratio | intrinsic clearance, human liver microsomes [mL/min/kg] | intrinsic clearance, rat liver microsomes [mL/min/kg] | aqueous solubility [µg/mL] | fraction unbound, human plasma | SMILES |
| --- | --- | --- | --- | --- | --- |
| 16 | ≤ 4.74 | ≤ 10.7 | 43.4 (≈ 148 µM) | – | c1ccc2c(N3CCn4c(nnc4C4CC4)C3)ncnc2c1 |
| – | ≤ 4.74 | ≤ 10.7 | – | – | CSC[C@H]1CN(Cc2c[nH]c3c(N)ncnc23)C[C@@H]1O |
| 0.755 | ≤ 4.74 | 21.5 | – | – | CC#CCCNC(=O)c1cccnc1C |
| 0.597 | ≤ 4.74 | 49.7 | 57 (≈ 195 µM) | – | Nc1nc(CN2CCN(c3ccc(F)cc3)CC2)cs1 |
| 1.15 | 23.7 | 862 | – | – | O=C1NC2(CCCCC2)C(=O)N1Cc1csc(-c2ccccc2)n1 |
| – | 6 | 14.1 | – | – | Cc1nc(C2CCN(Cc3ccc(C(F)(F)F)cc3)CC2)n[nH]1 |
| – | 186 | 2420 | – | – | Cc1ccc(S(=O)(=O)N2CCCc3ccc(NS(=O)(=O)c4ccc(F)cc4C)cc32)cc1 |
| 4.76 | 11.6 | 278 | – | – | CCc1cc(N2CCOCC2)nc(C2CCN(C(=O)C3CC3)CC2)n1 |
| 5.32 | ≤ 4.74 | 58.1 | – | – | Cc1nc(CN2CCC(CNC(=O)COc3ccccc3Cl)CC2)c[nH]1 |
| 1.62 | 700 | 1020 | 12 (≈ 28.9 µM) | – | CCC(C)(C)NC(=O)C1(Cc2ccc(-c3cc(F)ccc3OC)cc2)CCOCC1 |
| – | 197 | 2470 | – | – | N#Cc1nc(-c2ccccc2)oc1NCc1ccccc1 |
| 92.6 | 50.9 | 3330 | – | – | O=C(Cn1nc(Cc2ccccc2)c2ccccc2c1=O)NCc1ncc[nH]1 |
| 1.6 | 12.4 | 497 | 87.3 (≈ 274 µM) | – | Cc1nn(C)c(C)c1NC(=O)CN1CCC2(CCCCC2)CC1 |
| 4.87 | ≤ 4.74 | ≤ 10.7 | – | – | O=C(NCc1cnn2cccnc12)c1ccccc1-n1cnnc1 |
| – | ≤ 4.74 | ≤ 10.7 | – | – | Cc1cc(C(=O)N2CCS(=O)(=O)CC2)c(C)o1 |
| 4.18 | ≤ 4.74 | ≤ 10.7 | 78 (≈ 253 µM) | – | COc1cc(CNC(=O)NC2CCCCC2)cc(OC)c1O |
| 6.17 | ≤ 4.74 | 133 | 8.26 (≈ 22.5 µM) | – | O=C(NCc1ccc(F)cc1)C1CCN(C(=O)/C=C/c2ccccc2)CC1 |
| – | – | – | 26.9 (≈ 123 µM) | – | C#CCNC(=O)c1ccc(OC)c(OC)c1 |
| – | ≤ 4.74 | 26.6 | – | – | COc1cccc(CN2CCc3nc(-c4cnccn4)nc(O)c3C2)c1 |

| SMILES | MDR1-MDCK efflux ratio | intrinsic clearance, human liver microsomes [mL/min/kg] | intrinsic clearance, rat liver microsomes [mL/min/kg] | aqueous solubility [µg/mL] | fraction unbound, human plasma |
| --- | --- | --- | --- | --- | --- |
| CC(C)(O)[C@H]1O[C@H]2CC[C@@]3(C)[C@@](O)(CC[C@H]4Cc5c([nH]c6ccccc56)[C@@]43C)C2=CC1=O | – | – | – | 0.99 (≈ 2.27 µM) | – |
| O=c1[nH]c2ccccc2n1C1CCN(Cc2nc(-c3cccs3)no2)CC1 | – | 11.4 | 234 | – | – |

Reference: the Biogen ADME set (Fang et al. 2023)
